Measurements: the supplement of paper PMC12325586

Tested on: MIA PaCa-2
Protocol: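 MIA PaCa-2 Tet-on shOFD1 pancreatic cancer cells (2000 cells/well, 96-well) were treated with Selleck FDA-approved library compounds at 0, 1, 5, 10, 25 and 50 µM, with extra concentrations added where needed, for 72 h at 37 °C. Knockdown wells also received 100 ng/mL doxycycline; control wells received DMSO without doxycycline. Viability was read by CCK-8 absorbance at 450 nm and normalised to DMSO control wells. IC50 was fitted in GraphPad Prism as a 4-parameter logistic with bottom fixed at 0 and top fixed at 1; at least 3 technical replicate wells per condition.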

[1] = OFD1 knockdown: no (no doxycycline)
[2] = OFD1 knockdown: yes (Tet-on shOFD1, 100 ng/mL doxycycline)

Row | Compound | IC50 cell viability [1] | IC50 cell viability [2]
1 | CNC(=O)c1cc(Oc2ccc(NC(=O)Nc3ccc(Cl)c(C(F)(F)F)c3)c(F)c2)ccn1 [S1178] | 1.56 µM | 1.28 µM
2 | CC(C)(C#N)c1cc(Cn2cncn2)cc(C(C)(C)C#N)c1 [S1188] | 47.1 µM | 59.2 µM
3 | C[C@@H](O[C@H]1OCCN(Cc2n[nH]c(=O)[nH]2)[C@H]1c1ccc(F)cc1)c1cc(C(F)(F)F)cc(C(F)(F)F)c1 [S1189] | 13.9 µM | 14.2 µM
4 | CC(O)(CS(=O)(=O)c1ccc(F)cc1)C(=O)Nc1ccc(C#N)c(C(F)(F)F)c1 (centres undefined) [S1190] | 53.5 µM | 45.6 µM
5 | C[C@]12CC[C@@H]3c4ccc(O)cc4C[C@@H](CCCCCCCCC[S+]([O-])CCCC(F)(F)C(F)(F)F)[C@H]3[C@@H]1CC[C@@H]2O (some centres undefined) [S1191] | 25.6 µM | 24.5 µM
6 | C=C1C[C@@H]2[C@H](CC[C@]3(C)C(=O)CC[C@@H]23)[C@@]2(C)C=CC(=O)C=C12 [S1196] | 53.5 µM | 50.2 µM
7 | Nc1nc(Cl)nc2c1ncn2[C@H]1C[C@H](O)[C@@H](CO)O1 [S1199] | 55.1 µM | 49.9 µM
8 | Nc1ncn([C@H]2C[C@H](O)[C@@H](CO)O2)c(=O)n1 [S1200] | 74.8 µM | 77.2 µM
9 | O=S(=O)(O)CCSSCCS(=O)(=O)O [S1201] | 82.1 µM | 70.3 µM

The remaining lines, values ahead:

Row | IC50 cell viability [1] | IC50 cell viability [2] | Compound
10 | 1.07 µM | 0.75 µM | C=CCNC1=C2C[C@@H](C)C[C@H](OC)[C@H](O)[C@@H](C)/C=C(\C)[C@H](OC(N)=O)[C@@H](OC)/C=C\C=C(/C)C(=O)NC(=CC1=O)C2=O [S1141]
11 | 16.7 µM | 15.1 µM | CCN(CCO)CCCOc1ccc2c(Nc3cc(CC(=O)Nc4cccc(F)c4)[nH]n3)ncnc2c1 [S1147]
12 | 0.39 µM | 0.34 µM | CC(=O)O[C@@]12CO[C@@H]1C[C@H](O)[C@@]1(C)C(=O)[C@H](O)C3=C(C)[C@@H](OC(=O)[C@H](O)[C@@H](NC(=O)OC(C)(C)C)c4ccccc4)C[C@@](O)([C@@H](OC(=O)c4ccccc4)[C@H]21)C3(C)C [S1148]
13 | 19 µM | 17.6 µM | CC(=O)O[C@H]1C(=O)[C@@]2(C)[C@H]([C@H](OC(=O)c3ccccc3)[C@]3(O)C[C@H](OC(=O)[C@H](O)[C@@H](NC(=O)c4ccccc4)c4ccccc4)C(C)=C1C3(C)C)[C@]1(OC(C)=O)CO[C@@H]1C[C@@H]2O [S1150]
14 | 34 µM | 34.3 µM | CCCCCOC(=O)Nc1nc(=O)n([C@@H]2O[C@H](C)[C@@H](O)[C@H]2O)cc1F [S1156]
15 | 2.42 µM | 2.01 µM | CC(C)c1cc(-c2n[nH]c(=O)n2-c2ccc3c(ccn3C)c2)c(O)cc1O [S1159]
16 | 21.1 µM | 19.7 µM | COc1cc2nccc(Oc3ccc(NC(=O)NC4CC4)c(Cl)c3)c2cc1C(N)=O [S1164]
17 | 15.8 µM | 14.1 µM | Cc1nc(=O)c2cc(CN(C)c3ccc(C(=O)N[C@@H](CCC(=O)O)C(=O)O)s3)ccc2[nH]1 [S1192]
18 | 29.9 µM | 28.2 µM | O=C1CCC(N2C(=O)c3ccccc3C2=O)C(=O)N1 (centres undefined) [S1193]
19 | 1.35 µM | 1.14 µM | C#Cc1cccc(Nc2ncnc3cc(OC)c(OCCCCCCC(=O)NO)cc23)c1 [S1194]
20 | 24.5 µM | 20 µM | CCc1c2c(nc3ccc(OC(=O)N4CCC(N5CCCCC5)CC4)cc13)-c1cc3c(c(=O)n1C2)COC(=O)[C@]3(O)CC [S1198]
21 | 2.38 µM | 2.28 µM | C[C@]12C=CC(=O)N[C@@H]1CC[C@@H]1[C@@H]2CC[C@]2(C)[C@@H](C(=O)Nc3cc(C(F)(F)F)ccc3C(F)(F)F)CC[C@@H]12 [S1202]
22 | 10 µM | 7.5 µM | COc1cc2nccc(Oc3ccc(NC(=O)Nc4cc(C)on4)c(Cl)c3)c2cc1OC [S1207]
